Values quoted from earlier work as cited in patent US6825217B2, “Carbinols for the treatment of neuropathic dysfunction” (Endo Pharmaceuticals, Inc., priority 2001, dated 2004).

Conditions: rat, in vivo; cited from earlier work

CSCC[C@@H]1NC(=O)[C@H](CC(C)C)NC(=O)[C@H](CCCNC(=N)N)NC(=O)[C@H](CO)NC(=O)[C@@H]2CSSC[C@@H]3NC(=O)[C@H](CO)NC(=O)CNC(=O)[C@H]([C@@H](C)O)NC(=O)[C@H](CSSC[C@H](N)C(=O)N[C@@H](CCCCN)C(=O)NCC(=O)N[C@@H](CCCCN)C(=O)NCC(=O)N[C@@H](C)C(=O)N[C@@H](CCCCN)C(=O)N2)NC(=O)[C@H](CSSC[C@@H](C(N)=O)NC(=O)[C@H](CCCCN)NC(=O)CNC(=O)[C@H](CO)NC(=O)[C@H](CCCNC(=N)N)NC3=O)NC(=O)[C@H](CC(=O)O)NC(=O)[C@H](Cc2ccc(O)cc2)NC1=O [SNX-111]
duration of reduction of heat hyperalgesia and mechanical allodynia: at least three hours
heat hyperalgesia: reduced
mechanical allodynia: reduced
mechanical hyperalgesia: no effect
responses to sensory stimuli, thermal or mechanical: no effect
